These results are taken from the Kinase Knowledgebase extract (Sharma et al. 2016).

MAPK14 (human), sequence (Q16539 whole entry, looked up): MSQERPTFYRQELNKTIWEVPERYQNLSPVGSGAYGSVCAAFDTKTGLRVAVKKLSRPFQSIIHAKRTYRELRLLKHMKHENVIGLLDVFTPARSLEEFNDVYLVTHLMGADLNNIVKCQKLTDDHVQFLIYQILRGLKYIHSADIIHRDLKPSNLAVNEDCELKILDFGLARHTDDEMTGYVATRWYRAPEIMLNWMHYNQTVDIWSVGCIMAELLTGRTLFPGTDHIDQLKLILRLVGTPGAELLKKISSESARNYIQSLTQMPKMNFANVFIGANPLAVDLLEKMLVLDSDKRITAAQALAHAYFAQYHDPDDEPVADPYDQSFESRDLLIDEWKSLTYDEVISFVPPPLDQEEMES

This assay addresses MAPK14 (human) (UniProt Q16539). The experiment in a line: Inhibition of MAPK14 Kinase Activity.
Regarding `CC(C)n1c(-c2ccccc2)nc(OCc2ccc(F)cc2F)c(Cl)c1=O`, the IC50 (usually the concentration needed to halve the response being measured) amounted to 260 nM and the Ki (as a rule, a measure of affinity in units of concentration, obtained from inhibition or displacement) is 144 nM.

The compound `CC(C)n1c(N2CCNCC2)nc(OCc2ccc(F)cc2F)c(Br)c1=O` showed an IC50 of 732 nM and a Ki of 379 nM.

With `CNC(=O)CCc1nc(OCc2ccc(F)cc2F)c(Cl)c(=O)n1C(C)C`, the IC50 is 2430 nM and the Ki was determined as 1160 nM.

`CC(=O)NCc1nc(OCc2ccc(F)cc2F)c(Br)c(=O)n1C(C)C` yielded an IC50 of 1380 nM and a Ki of 675 nM.

Take `CC(C)n1c(OCCCC(=O)O)nc(OCc2ccc(F)cc2F)c(Cl)c1=O`: the IC50 was 229 nM and the Ki amounted to 109 nM.

Take `C=CCc1nc(OCc2ccc(F)cc2F)c(Cl)c(=O)n1C(C)C`: the IC50 is 256 nM and the Ki worked out at 133 nM.

`CC(C)n1c(N2CCC[C@H]2C(N)=O)nc(OCc2ccc(F)cc2F)c(Br)c1=O` showed a 50% inhibitory concentration (IC50) of 23.8 nM and a Ki of 12.3 nM.

`CCNC(=O)NCc1cc(F)ccc1COc1nc(C)n(C(C)C)c(=O)c1Cl` returned an IC50 of 380 nM and a Ki of 174 nM.

As for `CC(C)n1c(OCCCC(=O)NCCO)nc(OCc2ccc(F)cc2F)c(Cl)c1=O`, the IC50 was determined as 330 nM and the Ki came out at 157 nM.

`CC(C)n1c(NCCNC(N)=O)nc(OCc2ccc(F)cc2F)c(Br)c1=O` had an IC50 of 14.2 nM and a Ki of 7.04 nM.

On to `CC(C)n1c(NCCNC(=O)CO)nc(OCc2ccc(F)cc2F)c(Br)c1=O`, for which the IC50 turned out to be 14.2 nM and the Ki amounted to 6.58 nM.

`CC(C)n1c(-c2ccc(C(N)=O)cc2)nc(OCc2ccc(F)cc2F)c(Br)c1=O` had an IC50 of 110 nM and a Ki of 60.6 nM.

With `CC(=O)NCCOc1nc(OCc2ccc(F)cc2F)c(Cl)c(=O)n1C(C)C`, the IC50 was found to be 80.4 nM and the Ki is 49.3 nM.

Consider `CC(C)n1c(NCCNS(C)(=O)=O)nc(OCc2ccc(F)cc2F)c(Br)c1=O`, for which the IC50 was found to be 1.7 nM and the Ki turned out to be 0.205 nM.

For the compound `CC(C)n1c(N2CC[C@@H](NC(=O)C(C)(C)O)C2)nc(OCc2ccc(F)cc2F)c(Cl)c1=O`, the IC50 was determined as 484 nM and the Ki came to 310 nM.

For the compound `CC(C)n1c(CCCC(=O)NCCO)nc(OCc2ccc(F)cc2F)c(Cl)c1=O`, the IC50 was 612 nM and the Ki came out at 315 nM.

`CC(C)n1c(NCC(C)(C)O)nc(OCc2ccc(F)cc2F)c(Br)c1=O` yielded an IC50 of 31.7 nM and a Ki of 16.6 nM.

`CC(C)n1c(N2CC[C@@H](NC(=O)OCc3cccnc3)C2)nc(OCc2ccc(F)cc2F)c(Br)c1=O` yielded a half-maximal inhibitory concentration (IC50) of 810 nM and a Ki of 476 nM.

In turn, `CC(C)n1c(NCCNS(C)(=O)=O)nc(OCc2ccc(F)cc2F)c(Cl)c1=O` displayed an IC50 of 22.3 nM and a Ki of 10.3 nM.

Turning to `CC(C)n1c(OCCNC(=O)NCCO)nc(OCc2ccc(F)cc2F)c(Cl)c1=O`, the IC50 stood at 398 nM and the Ki was 190 nM.

In turn, `CC(C)n1c(CCCC(N)=O)nc(OCc2ccc(F)cc2F)c(Br)c1=O` had an IC50 of 391 nM and a Ki of 181 nM.

With `CC(C)n1c(-c2ccccc2)nc(OCc2ccc(F)cc2F)cc1=O`, the IC50 was 3180 nM and the Ki was 1690 nM.

In turn, `CC(C)n1cnc(OCc2ccc(F)cc2F)c(Cl)c1=O` had an IC50 of 296 nM and a Ki of 148 nM.

`CC(C)n1c(CCCO)nc(OCc2ccc(F)cc2F)c(Cl)c1=O`: the IC50 turned out to be 392 nM and the Ki turned out to be 202 nM.

`CC(C)n1c(NCC(=O)N2CCCC2)nc(OCc2ccc(F)cc2F)c(Br)c1=O` yielded an IC50 of 215 nM and a Ki of 102 nM.

Turning to `CC(C)n1c(N2CC[C@H](N)C2)nc(OCc2ccc(F)cc2F)c(Cl)c1=O`, the IC50 is 1660 nM and the Ki was 1070 nM.

`CC(C)n1c(OCCCCO)nc(OCc2ccc(F)cc2F)c(Cl)c1=O` came in with an IC50 of 139 nM and an inhibitory constant (Ki) of 68.5 nM.

The compound `CC(=O)N1CCC(Nc2nc(OCc3ccc(F)cc3F)c(Br)c(=O)n2C(C)C)CC1` showed an IC50 of 87.9 nM and a Ki of 41.4 nM.

`CC(=O)NCCNc1nc(OCc2ccc(F)cc2F)c(Cl)c(=O)n1C(C)C`: the IC50 is 28.1 nM and the Ki stood at 14.7 nM.

`CC(C)n1c(N2CCC[C@@H]2CO)nc(OCc2ccc(F)cc2F)c(Br)c1=O`: the 50% inhibitory concentration (IC50) stood at 29.8 nM and the Ki came to 15.7 nM.

`CC(C)n1c(NCCCNC(N)=O)nc(OCc2ccc(F)cc2F)c(Br)c1=O` showed an IC50 of 5 nM and a Ki of 2.09 nM.

The compound `CC(C)n1c(N2CCN(C(=O)CN)CC2)nc(OCc2ccc(F)cc2F)c(Br)c1=O` registered an IC50 of 158 nM and a Ki of 81 nM.

In turn, `CCNC(=O)NCc1cc(F)ccc1COc1nc(C)n(C(C)C)c(=O)c1Br` returned an IC50 of 129 nM and a Ki of 62.1 nM.

Regarding `CC(C)n1c(CCCC(=O)NCCO)nc(OCc2ccc(F)cc2F)c(Br)c1=O`, the concentration for half-maximal inhibition (IC50) is 600 nM and the Ki was found to be 278 nM.

As to `CC(C)n1c(NC[C@@H](O)CO)nc(OCc2ccc(F)cc2F)c(Br)c1=O`, the IC50 was 21.6 nM and the Ki was 11.1 nM.

Consider `CC(C)n1c(OCC(N)=O)nc(OCc2ccc(F)cc2F)c(Br)c1=O`, for which the IC50 came to 270 nM and the Ki turned out to be 132 nM.

For `CC(C)n1c(NCCCNC(=O)C(C)(C)O)nc(OCc2ccc(F)cc2F)c(Br)c1=O`, the IC50 turned out to be 23.8 nM and the Ki came out at 12.7 nM.

`CC(C)n1c(OCCN)nc(OCc2ccc(F)cc2F)c(Br)c1=O` came in with a concentration for half-maximal inhibition (IC50) of 334 nM and a Ki of 140 nM.

Regarding `CC(C)n1c(OCCNC(N)=O)nc(OCc2ccc(F)cc2F)c(Br)c1=O`, the IC50 is 2.6 nM and the Ki came to 0.713 nM.

In the case of `CC(C)n1c(NCCNC(=O)CO)nc(OCc2ccc(F)cc2F)c(Cl)c1=O`, the IC50 is 22.1 nM and the Ki amounted to 10.2 nM.

Take `CC(C)n1c(N2CCCC(C(N)=O)C2)nc(OCc2ccc(F)cc2F)c(Br)c1=O` (stereo not given): the IC50 is 119 nM and the Ki worked out at 61.6 nM.

With `CC(C)n1c(-c2ccc(C(N)=O)cc2)nc(OCc2ccc(F)cc2F)c(Cl)c1=O`, the IC50 came out at 328 nM and the Ki turned out to be 181 nM.

As for `CC(C)n1c(NCCCC(N)=O)nc(OCc2ccc(F)cc2F)c(Br)c1=O`, the IC50 was determined as 17.3 nM and the Ki was 8.82 nM.

As to `CC(C)n1c(NCC(N)=O)nc(OCc2ccc(F)cc2F)c(Cl)c1=O`, the IC50 turned out to be 102 nM and the Ki was 48 nM.

With `CC(C)n1c(N2CC[C@@H](NC(=O)CO)C2)nc(OCc2ccc(F)cc2F)c(Cl)c1=O`, the IC50 is 372 nM and the inhibition constant (Ki) was found to be 238 nM.

`CC(C)n1c(O)nc(OCc2ccc(F)cc2F)c(Cl)c1=O` came in with an IC50 of 267 nM and a Ki of 139 nM.

The compound `CC(C)n1c(NCCCNS(C)(=O)=O)nc(OCc2ccc(F)cc2F)c(Br)c1=O` displayed an IC50 of 7.2 nM and an inhibition constant (Ki) of 3.32 nM.

With `CC(C)n1c(S(C)(=O)=O)nc(OCc2ccc(F)cc2F)c(Br)c1=O`, the IC50 came to 299 nM and the Ki is 156 nM.

In the case of `CC(C)n1c(N2CCN(CC(N)=O)CC2)nc(OCc2ccc(F)cc2F)c(Br)c1=O`, the IC50 is 251 nM and the inhibitory constant (Ki) came to 104 nM.

As for `CC(C)n1c(N2CC[C@@H](NCCO)C2)nc(OCc2ccc(F)cc2F)c(Br)c1=O`, the IC50 was 615 nM and the Ki worked out at 343 nM.
